Measured values: EP0943336A1, “PEPTIDE-CONTAINING PHARMACEUTICAL COMPOSITIONS FOR ORAL ADMINISTRATION” (DOTT RESEARCH LABORATORY, priority 1996, dated 1999)
Like-named read-outs stand apart in the source and are kept apart here.

Columns and labels:
[1] = Absorption after oral administration of buserelin composition (blood buserelin level, direct method); assay type: in vivo, cynomolgus monkeys; details: calcium carbonate carrier, enteric capsules; for level at 2 h / level at 2.5 h: cynomolgus monkey, blood, po; for level at 2 h: 120 min after oral dose; for level at 2.5 h: 150 min after oral dose
Text: The particle diameter of calcium carbonate as the carrier was 40 to 45 µm.

[2] = Absorption after oral administration of PTH (1-34) composition with diclofenac (blood PTH (1-34) level, ELISA); assay type: in vivo, cynomolgus monkeys; details: 10 mg diclofenac added to PTH (1-34)/magnesium oxide composition
Text: (§1) Then, the resultant mixture was filled in enteric coating capsules.

[3] = cynomolgus monkey, in vivo
Experimental: Both components were mixed to make a composition in which the PTH (1-34) content was 600 µg/200 mg, and the resultant mixture was filled in enteric coating capsules.
The particle diameter of calcium carbonate, AW ceramics, and magnesium oxide used as the carrier was 40 to 45 µm.
A single oral dose of the above-mentioned composition was administered to two cynomolgus monkeys weighing 5 kg. Their blood samples were collected before dosing, and at 30, 60, 90, 120, 180, 240, 300, and 360 minutes after dosing to determine the blood PTH (1-34) level by using ELISA with a 1-34PTH2 antibody.

[4] = set-up: species or system cynomolgus monkeys; details: cynomolgus monkey, in vivo
Text: as §1

CCNC(=O)[C@@H]1CCCN1C(=O)[C@H](CCCNC(=N)N)NC(=O)[C@H](CC(C)C)NC(=O)[C@@H](COC(C)(C)C)NC(=O)[C@H](Cc1ccc(O)cc1)NC(=O)[C@H](CO)NC(=O)[C@H](Cc1c[nH]c2ccccc12)NC(=O)[C@H](Cc1cnc[nH]1)NC(=O)[C@@H]1CCC(=O)N1 [buserelin, Buserelin]
Blood buserelin level ([1]; 30 min after oral dose, Animal No. 1): 30 or less pg/ml | Blood buserelin level ([1]; 30 min after oral dose, Animal No. 2): 30 or less pg/ml | Blood buserelin level ([1]; 30 min after oral dose, Animal No. 3): 30 or less pg/ml | Blood buserelin level ([1]; 45 min after oral dose, Animal No. 1): 30 or less pg/ml | Blood buserelin level ([1]; 45 min after oral dose, Animal No. 2): 30 or less pg/ml | Blood buserelin level ([1]; 45 min after oral dose, Animal No. 3): 30 or less pg/ml | Blood buserelin level ([1]; 60 min after oral dose, Animal No. 1): 30 or less pg/ml | Blood buserelin level ([1]; 60 min after oral dose, Animal No. 2): 30 or less pg/ml | Blood buserelin level ([1]; 60 min after oral dose, Animal No. 3): 30 or less pg/ml | Blood buserelin level ([1]; Before dosing, Animal No. 1, oral): 30 or less pg/ml | Blood buserelin level ([1]; Before dosing, Animal No. 2, oral): 30 or less pg/ml | Blood buserelin level ([1]; Before dosing, Animal No. 3, oral): 30 or less pg/ml | level at 2 h ([1]; Animal No. 1): 0.066 ng/mL | level at 2 h ([1]; Animal No. 2): 0.107 ng/mL | level at 2 h ([1]; Animal No. 3): 0.053 ng/mL | level at 2.5 h ([1]; Animal No. 1): 0.081 ng/mL | level at 2.5 h ([1]; Animal No. 2): 0.193 ng/mL | level at 2.5 h ([1]; Animal No. 3): 0.07 ng/mL | absorption after oral administration (in words) [1]: well absorbed

O=C(O)Cc1ccccc1Nc1c(Cl)cccc1Cl [diclofenac]
effect of addition on absorption of PTH (1-34) (in words) [2]: enhanced its absorption

PTH (1-34)
absorption after oral administration (in words) [3]: well absorbed | absorption after oral administration (in words) [4]: well absorbed
